Source: ChEMBL document CHEMBL1129869, “SPORANDOL: A NOVEL ANTIPARASITIC BINAPHTHALENE FROM CHRYSOSPORIUM MERIDARIUM” (Bioorg Med Chem Lett, 1997)
Active and inactive are the calls of the source. The calls are words filed in the database; no cut-off is given here.

Assays:
Dipetalogaster maximus = assay: Antiparasitic activity against ecto parasite Dipetalogaster maximus in mouse at a dose of 190 mg/kg; Active; type: functional, organism-based; design: dose 190 mg/kg
Fasciola hepatica = assay: Antiparasitic activity against endo parasite Fasciola hepatica in mouse at a dose of 190 mg/kg; Active; type: functional, organism-based; design: dose 190 mg/kg

## COc1cc2cc(C)c(C(C)=O)c(O)c2c(O)c1-c1c(OC)cc2cc(C)c(C(C)=O)c(O)c2c1O
Dipetalogaster maximus
  Activity: Active
Fasciola hepatica
  Activity: Active
